In the test the test system is CD8F1 mice, subcutaneous mammary adenocarcinoma, T/C%. Put plainly: NCI In Vivo Anticancer Drug Screen. Data for tumor model Mammary Adenocarcinoma CD8F1 (subcutaneous) in CD8F1. The following applies: higher = larger tumour. The method in brief:
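Tumor-bearing mice, transplantable model; readout survival or tumor size; value = treated (T) / vehicle control (C).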

Setting [1] is: endpoint: median tumor weight (est.), dose: 3.12 mg/kg/injection, schedule: Q07DX005 (ip), vehicle: saline.
The mark [2] stands for this setting: endpoint: median tumor weight (est.), dose: 50.0 mg/kg/injection, schedule: Q07DX005 (ip), vehicle: saline.
The mark [3] stands for this setting: endpoint: median tumor weight change, dose: 125.0 mg/kg/injection, schedule: Q01DX001 (ip), vehicle: saline with Tween-80.

The values below come from PubChem BioAssay AID220 (DTP/NCI, 2004).

“And” between values parts separate entries of the source, which are not always exact repeats. Equal entries are not always repeated. Inconclusive results are not listed.

On to `OCC1OC(n2cnc3c2NC=NC[C@H]3O)CC1O` (stereo partly drawn), for which the T/C was 104 % of control (endpoint: median tumor weight (est.), dose: 0.25 mg/kg/injection, schedule: Q07DX005 (ip), vehicle: water); 108 % of control (endpoint: median tumor weight (est.), dose: 0.5 mg/kg/injection, schedule: Q07DX005 (ip), vehicle: water); 63 % of control (endpoint: median tumor weight (est.), dose: 2.0 mg/kg/injection, schedule: Q07DX005 (ip), vehicle: water); 51 % of control (endpoint: median tumor weight (est.), dose: 4.0 mg/kg/injection, schedule: Q07DX005 (ip), vehicle: water); 60 % of control (endpoint: median tumor weight (est.), dose: 8.0 mg/kg/injection, schedule: Q07DX005 (ip), vehicle: water).

Regarding `CNc1n[n+](-c2ccccc2)no1`, the T/C (endpoint: mean tumor weight, dose: 3.12 mg/kg/injection, schedule: Q07DX006 (ip), vehicle: saline) is 90 % of control; the T/C (endpoint: mean tumor weight, dose: 12.5 mg/kg/injection, schedule: Q07DX006 (ip), vehicle: saline) is 27 % of control; the T/C (endpoint: mean tumor weight, dose: 25.0 mg/kg/injection, schedule: Q07DX006 (ip), vehicle: saline) is 81 % of control; the T/C (endpoint: mean tumor weight, dose: 50.0 mg/kg/injection, schedule: Q07DX006 (ip), vehicle: saline) was 2 % of control; the T/C under setting [1] was 157 % of control; the T/C under setting [2] is 50 % of control and 60 % of control.

Consider `CC1(C)COCN1COC1CCCCC1`, for which, under setting [3], the T/C was 79 % of control.

On to `[Na+]`, for which the T/C (endpoint: median tumor weight change, dose: 75.0 mg/kg/injection, schedule: Q01DX001 (ip), vehicle: water) was 68 % of control; the T/C (endpoint: median tumor weight change, dose: 150.0 mg/kg/injection, schedule: Q01DX001 (ip), vehicle: water) is 93 % of control; the T/C (endpoint: median tumor weight change, dose: 300.0 mg/kg/injection, schedule: Q01DX001 (ip), vehicle: water) was 66 % of control; the T/C (endpoint: median tumor weight change, dose: 600.0 mg/kg/injection, schedule: Q01DX001 (ip), vehicle: water) is 85 % of control; the T/C (endpoint: median tumor weight change, dose: 1200.0 mg/kg/injection, schedule: Q01DX001 (ip), vehicle: water) is 67 % of control.

On to `NC(=O)c1cn(C2OC(CO)C(O)C2O)c2ncnc(N)c12` (stereo not drawn), for which the T/C (endpoint: median tumor weight (est.), dose: 1.0 mg/kg/injection, schedule: Q07DX005 (ip), vehicle: suspension in saline) was 63 % of control; the T/C (endpoint: median tumor weight (est.), dose: 2.0 mg/kg/injection, schedule: Q07DX005 (ip), vehicle: suspension in saline) is 27 % of control and 45 % of control; the T/C (endpoint: median tumor weight change, dose: 0.25 mg/kg/injection, schedule: Q01DX001 (ip), vehicle: saline) is 121 % of control; the T/C (endpoint: median tumor weight change, dose: 0.5 mg/kg/injection, schedule: Q01DX001 (ip), vehicle: saline) is 91 % of control; the T/C (endpoint: median tumor weight change, dose: 1.0 mg/kg/injection, schedule: Q01DX001 (ip), vehicle: saline) was 81 % of control; the T/C (endpoint: median tumor weight change, dose: 1.25 mg/kg/injection, schedule: Q01DX001 (ip), vehicle: suspension in saline) was 88 % of control. For the same molecule, the T/C by setting is: (endpoint: median tumor weight change, dose: 2.0 mg/kg/injection, schedule: Q01DX001 (ip), vehicle: saline) 107 % of control; (endpoint: median tumor weight change, dose: 2.5 mg/kg/injection, schedule: Q01DX001 (ip), vehicle: suspension in saline) 102 % of control; (endpoint: median tumor weight change, dose: 4.0 mg/kg/injection, schedule: Q01DX001 (ip), vehicle: saline) 95 % of control; (endpoint: median tumor weight change, dose: 5.0 mg/kg/injection, schedule: Q01DX001 (ip), vehicle: suspension in saline) 70 % of control; (endpoint: median tumor weight change, dose: 8.0 mg/kg/injection, schedule: Q01DX001 (ip), vehicle: saline) 79 % of control.

On to `Nc1nc(N)c2cc(S(=O)(=O)c3ccccc3)ccc2n1`, for which the T/C by setting is: (endpoint: median tumor weight change, dose: 62.5 mg/kg/injection, schedule: Q01DX001 (ip), vehicle: saline with Tween-80) 102 % of control; under setting [3], 109 % of control; (endpoint: median tumor weight change, dose: 250.0 mg/kg/injection, schedule: Q01DX001 (ip), vehicle: saline with Tween-80) 67 % of control; (endpoint: median tumor weight change, dose: 500.0 mg/kg/injection, schedule: Q01DX001 (ip), vehicle: saline with Tween-80) 42 % of control; (endpoint: median tumor weight change, dose: 1000.0 mg/kg/injection, schedule: Q01DX001 (ip), vehicle: saline with Tween-80) 40 % of control.

As for `ClCCCN1CCN(CCCl)CC1`, the T/C (endpoint: median tumor weight change, dose: 10.0 mg/kg/injection, schedule: Q01DX001 (ip), vehicle: saline) was 92 % of control and 97 % of control; the T/C (endpoint: median tumor weight change, dose: 14.4 mg/kg/injection, schedule: Q01DX001 (ip), vehicle: saline) was 88 % of control; the T/C (endpoint: median tumor weight change, dose: 20.0 mg/kg/injection, schedule: Q01DX001 (ip), vehicle: saline) is 27 % of control and 52 % of control; the T/C (endpoint: median tumor weight change, dose: 24.0 mg/kg/injection, schedule: Q01DX001 (ip), vehicle: saline) is 15 % of control.

As for `ClCCCN1CCCCC1CCl` (stereo not drawn), the T/C reads like this: (endpoint: median tumor weight (est.), dose: 1.56 mg/kg/injection, schedule: Q07DX005 (ip), vehicle: saline) 73 % of control; under setting [1], 123 % of control and 105 % of control; (endpoint: median tumor weight (est.), dose: 6.25 mg/kg/injection, schedule: Q07DX005 (ip), vehicle: saline) 71 % of control and 78 % of control; (endpoint: median tumor weight (est.), dose: 25.0 mg/kg/injection, schedule: Q07DX005 (ip), vehicle: saline) 53 % of control; under setting [2], 3 % of control.

Take `NC(=S)N/N=C/c1ccc(OC(=O)COc2ccc(Cl)cc2)cn1`: the T/C runs as follows: (endpoint: mean tumor weight, dose: 25.0 mg/kg/injection, schedule: Q07DX008 (ip), vehicle: saline) 100 % of control; (endpoint: mean tumor weight, dose: 50.0 mg/kg/injection, schedule: Q07DX008 (ip), vehicle: saline) 50 % of control; (endpoint: mean tumor weight, dose: 100.0 mg/kg/injection, schedule: Q07DX008 (ip), vehicle: saline) 64 % of control; (endpoint: mean tumor weight, dose: 200.0 mg/kg/injection, schedule: Q07DX008 (ip), vehicle: saline) 60 % of control; (endpoint: mean tumor weight, dose: 400.0 mg/kg/injection, schedule: Q07DX008 (ip), vehicle: saline) 105 % of control; (endpoint: median tumor weight (est.), dose: 12.5 mg/kg/injection, schedule: Q07DX005 (ip), vehicle: saline with Tween-80) 52 % of control. Besides, the T/C runs as follows: (endpoint: median tumor weight (est.), dose: 25.0 mg/kg/injection, schedule: Q07DX005 (ip), vehicle: saline with Tween-80) 167 % of control; (endpoint: median tumor weight (est.), dose: 50.0 mg/kg/injection, schedule: Q07DX005 (ip), vehicle: saline with Tween-80) 79 % of control; (endpoint: median tumor weight (est.), dose: 100.0 mg/kg/injection, schedule: Q07DX005 (ip), vehicle: saline with Tween-80) 114 % of control; (endpoint: median tumor weight (est.), dose: 200.0 mg/kg/injection, schedule: Q07DX005 (ip), vehicle: saline with Tween-80) 82 % of control; (endpoint: median tumor weight (est.), dose: 400.0 mg/kg/injection, schedule: Q07DX005 (ip), vehicle: saline with Tween-80) 119 % of control.

With `Nc1cc(Cl)c2[nH]cnc2n1`, the T/C (endpoint: median tumor weight change, dose: 62.5 mg/kg/injection, schedule: Q01DX001 (ip), vehicle: distilled water + Tween-80) is 76 % of control; the T/C (endpoint: median tumor weight change, dose: 62.5 mg/kg/injection, schedule: Q01DX001 (ip), vehicle: water) is 111 % of control; the T/C (endpoint: median tumor weight change, dose: 125.0 mg/kg/injection, schedule: Q01DX001 (ip), vehicle: distilled water + Tween-80) is 88 % of control; the T/C (endpoint: median tumor weight change, dose: 125.0 mg/kg/injection, schedule: Q01DX001 (ip), vehicle: water) is 100 % of control; the T/C (endpoint: median tumor weight change, dose: 250.0 mg/kg/injection, schedule: Q01DX001 (ip), vehicle: distilled water + Tween-80) was 58 % of control; the T/C (endpoint: median tumor weight change, dose: 250.0 mg/kg/injection, schedule: Q01DX001 (ip), vehicle: water) is 92 % of control. The T/C (endpoint: median tumor weight change, dose: 500.0 mg/kg/injection, schedule: Q01DX001 (ip), vehicle: distilled water + Tween-80) was 82 % of control; the T/C (endpoint: median tumor weight change, dose: 500.0 mg/kg/injection, schedule: Q01DX001 (ip), vehicle: water) was 73 % of control; the T/C (endpoint: median tumor weight change, dose: 1000.0 mg/kg/injection, schedule: Q01DX001 (ip), vehicle: distilled water + Tween-80) was 42 % of control; the T/C (endpoint: median tumor weight change, dose: 1000.0 mg/kg/injection, schedule: Q01DX001 (ip), vehicle: water) was 80 % of control.
